Measurements: ChEMBL document CHEMBL1127801, “3-(2-(3-Pyridinyl)thiazolidin-4-oyl)indoles, a novel series of platelet activating factor antagonists” (J Med Chem, 1994)

Columns and labels:
[1] = test system: Mus musculus; assay: In vivo antagonist activity against PAF-Induced paw edema in the mouse; type: functional
[2] = test system: Rattus norvegicus; assay: In vivo antagonist activity for PAF-Induced cutaneous vascular permeability in the rat; type: functional
[3] = biological target: Platelet-activating factor receptor (Oryctolagus cuniculus); assay: Functional inhibition of PAF-induced platelet degranulation

In the case of `CN(C)C(=O)n1cc(C(=O)[C@@H]2CSC(c3cccnc3)N2)c2ccc(-c3ccccc3)cc21` (some centres undefined), the ED50 [1] is reported as 0.808 mg/kg and the ED50 [2] is reported as 1.12 mg/kg.

Work on `Cc1nnc2n1-c1sc3c(c1C(c1ccccc1Cl)=NC2)CC(C(=O)N1CCOCC1)C3` (centres undefined) [BEPAFANT] yielded an ED50 [1] of 0.459 mg/kg and an ED50 [2] of 0.423 mg/kg.

In the case of `O=C([C@@H]1CSC(c2cccnc2)N1)n1ccc2ccc(OCc3ccccc3)cc21` (some centres undefined), the Kb [3] is reported as 12 nM.

`CN(C(=O)n1cc(C(=O)[C@@H]2CSC(c3cccnc3)N2)c2ccccc21)c1ccccc1` (some centres undefined) gave a Kb [3] of 1.93 nM.

Work on `O=C(C1CSC(c2cccnc2)N1)n1ccc2cc(OCc3ccccc3)ccc21` (centres undefined) yielded a Kb [3] of 1.95 nM.

Compound `O=C(O)C(=O)O.O=C(c1c[nH]c2ccccc12)[C@@H]1CSC(c2cccnc2)N1` (some centres undefined) has an ED50 [1] of 5.32 mg/kg and an ED50 [2] of 3.65 mg/kg.

Work on `CN(C)C(=O)n1cc(C(=O)[C@@H]2CSC(c3cccnc3)N2)c2ccc(C(=O)c3ccccc3)cc21` (some centres undefined) yielded an ED50 [2] of 0.521 mg/kg.

In the case of `CN(C)C(=O)n1cc(C(=O)[C@@H]2CSC(c3cccnc3)N2)c2ccc(OCc3ccccc3)cc21.O=C(O)C(=O)O` (some centres undefined), the ED50 [1] is reported as 0.079 mg/kg and the ED50 [2] is reported as 0.53 mg/kg.

Compound `O=C(O)C(=O)O.O=C(c1cn(C(=O)OCc2ccccc2)c2ccccc12)[C@@H]1CSC(c2cccnc2)N1` (some centres undefined) has an ED50 [1] of 1.79 mg/kg.

Work on `CC(C)(C)OC(=O)n1cc(C(=O)[C@@H]2CSC(c3cccnc3)N2)c2ccc(OCc3ccccc3)cc21` (some centres undefined) yielded an ED50 [1] of 1.3 mg/kg, an ED50 [2] of 0.429 mg/kg and a Kb [3] of 1.19 nM.

Compound `COc1ccc2c(C(=O)[C@@H]3CSC(c4cccnc4)N3)c[nH]c2c1` (some centres undefined) has an ED50 [1] of 3.7 mg/kg.

Compound `COc1ccc2c(C(=O)[C@@H]3CSC(c4cccnc4)N3)cn(C(=O)OC(C)(C)C)c2c1.O=C(O)C(=O)O` (some centres undefined) has an ED50 [2] of 1.9 mg/kg.

In the case of `CCCOc1c(OC)cc([C@@H]2CC[C@@H](c3cc(OC)c(OC)c(OC)c3)O2)cc1S(=O)(=O)CCO`, the ED50 [1] is reported as 11.5 mg/kg and the ED50 [2] is reported as 1.89 mg/kg.

`O=C(c1c[nH]c2cc(F)ccc12)[C@@H]1CSC(c2cccnc2)N1` (some centres undefined) was tested, and the ED50 [2] was 2.69 mg/kg.

With `CN(C)C(=O)n1cc(C(=O)[C@@H]2CSC(c3cccnc3)N2)c2ccc(-c3cccnc3)cc21` (some centres undefined) the ED50 [2] was 4.48 mg/kg.

Compound `Cc1nnc2n1-c1sc(CCC(=O)N3CCOCC3)cc1C(c1ccccc1Cl)=NC2` [APAFANT] has an ED50 [1] of 2.2 mg/kg and an ED50 [2] of 22.3 mg/kg.

Compound `CC(C)(C)NC(=O)n1cc(C(=O)[C@@H]2CSC(c3cccnc3)N2)c2ccccc21` (some centres undefined) has an ED50 [2] of 6.28 mg/kg.

`CN(C)C(=O)n1cc(C(=O)[C@@H]2CSC(c3cccnc3)N2)c2ccc(Cl)cc21` (some centres undefined) gave an ED50 [2] of 1.6 mg/kg.

Compound `O=C(c1cn(Cc2ccccc2)c2ccccc12)[C@@H]1CSC(c2cccnc2)N1` (some centres undefined) has a Kb [3] of 22.1 nM.

With `O=C(c1ccccc1)c1cccc(NC(=O)[C@@H]2CSC(c3cccnc3)N2)c1` (some centres undefined) the ED50 [1] was 1.73 mg/kg, the ED50 [2] was 12.9 mg/kg and the Kb [3] was 4.14 nM.

`Cc1nnc2n1C1=C(C(c3ccccc3Cl)=NC2C)C2CCN(C(=O)C3CC3)CC2S1` (centres undefined) was tested, and the ED50 [1] was 1.44 mg/kg and the ED50 [2] was 0.15 mg/kg.

`CCN(CC)C(=O)n1cc(C(=O)[C@@H]2CSC(c3cccnc3)N2)c2ccccc21` (some centres undefined) showed an ED50 [1] of 0.52 mg/kg and an ED50 [2] of 0.616 mg/kg.

Compound `CCOC(=O)C1=C(c2ccc(-n3c(C)nc4cnccc43)cc2)NC(C)=C(C(=O)Nc2ccccn2)C1c1ccccc1Cl` (centres undefined) has an ED50 [2] of 0.232 mg/kg.

For `CN(C)C(=O)n1cc(C(=O)[C@@H]2CSC(c3cccnc3)N2)c2ccccc21` (some centres undefined), the ED50 [1] was 0.979 mg/kg, the ED50 [2] was 1.3 mg/kg and the Kb [3] was 0.291 nM.

`Cc1ccc2c(c1)c(C(=O)[C@@H]1CSC(c3cccnc3)N1)c(C)n2C(=O)OC(C)(C)C.O=C(O)C(=O)O` (some centres undefined) gave an ED50 [2] of 9.51 mg/kg.

`CN(C)C(=O)n1cc(C(=O)[C@@H]2CSC(c3cccnc3)N2)c2ccc(F)cc21` (some centres undefined) was tested, and the ED50 [2] was 0.945 mg/kg.

`O=C(c1c[nH]c2cc(OCc3ccccc3)ccc12)[C@@H]1CSC(c2cccnc2)N1` (some centres undefined) was tested, and the ED50 [1] was 1.47 mg/kg, the ED50 [2] was 0.526 mg/kg and the Kb [3] was 0.0929 nM.

With `Cc1ccc2c(C(=O)[C@@H]3CSC(c4cccnc4)N3)cn(C(=O)OC(C)(C)C)c2c1` (some centres undefined) the ED50 [1] was 1.19 mg/kg and the ED50 [2] was 5.22 mg/kg.

`Cc1c(C(=O)[C@@H]2CSC(c3cccnc3)N2)c2ccccc2n1C(=O)OC(C)(C)C.O=C(O)C(=O)O` (some centres undefined) showed an ED50 [1] of 0.873 mg/kg.

With `O=C(c1c[nH]c2cc(Br)ccc12)[C@@H]1CSC(c2cccnc2)N1` (some centres undefined) the ED50 [2] was 1.07 mg/kg.

`CC(C)(C)OC(=O)n1cc(C(=O)[C@@H]2CSC(c3cccnc3)N2)c2ccccc21` (some centres undefined) gave an ED50 [1] of 0.372 mg/kg, an ED50 [2] of 4.96 mg/kg and a Kb [3] of 0.111 nM.

Compound `Cl.Cl.O=C(C1CSC(c2cccnc2)N1)n1ccc2c(Cl)cccc21` (centres undefined) has an ED50 [2] of 15 mg/kg.

`O=C(O)C(F)(F)F.O=C(c1c[nH]c2c(OCc3ccccc3)cccc12)[C@@H]1CSC(c2cccnc2)N1` (some centres undefined) gave an ED50 [1] of 6.98 mg/kg, an ED50 [2] of 1.41 mg/kg and a Kb [3] of 0.571 nM.

Compound `CN(C)C(=O)n1cc(C(=O)[C@@H]2CSC(c3cccnc3)N2)c2ccc(OCc3ccc(F)cc3)cc21` (some centres undefined) has an ED50 [2] of 0.355 mg/kg.

Work on `CC(C)(C)C(=O)n1cc(C(=O)[C@@H]2CSC(c3cccnc3)N2)c2ccccc21` (some centres undefined) yielded an ED50 [1] of 15.8 mg/kg.

Work on `O=C(c1cn(C(=O)N2CCOCC2)c2ccccc12)[C@@H]1CSC(c2cccnc2)N1` (some centres undefined) yielded an ED50 [1] of 2.63 mg/kg.

`CCS(=O)(=O)n1cc(C(=O)[C@@H]2CSC(c3cccnc3)N2)c2ccccc21` (some centres undefined) was tested, and the Kb [3] was 1.59 nM.

`COc1cc(C(=O)c2cccc(NC(=O)[C@@H]3CSC(c4cccnc4)N3)c2)cc(OC)c1OC` (some centres undefined) gave an ED50 [1] of 0.476 mg/kg, an ED50 [2] of 2.06 mg/kg and a Kb [3] of 0.415 nM.

Compound `O=C(c1ccccc1)c1cccc(NC(=O)c2ccn3c2CSC3c2cccnc2)c1` (centres undefined) has an ED50 [1] of 4.07 mg/kg and an ED50 [2] of 2.27 mg/kg.

`O=C(c1cn(C(=O)N2CCOCC2)c2cc(OCc3ccccc3)ccc12)[C@@H]1CSC(c2cccnc2)N1` (some centres undefined) was tested, and the ED50 [1] was 3.7 mg/kg and the ED50 [2] was 0.762 mg/kg.

Work on `CCS(=O)(=O)n1cc(C(=O)[C@@H]2CSC(c3cccnc3)N2)c2ccc(OCc3ccccc3)cc21` (some centres undefined) yielded an ED50 [2] of 0.862 mg/kg.

`Cc1[nH]c2ccccc2c1C(=O)[C@@H]1CSC(c2cccnc2)N1` (some centres undefined) was tested, and the Kb [3] was 1.99 nM.

For `CN(C)C(=O)n1cc(C(=O)[C@@H]2CSC(c3cccnc3)N2)c2cccc(OCc3ccccc3)c21` (some centres undefined), the ED50 [1] was 0.091 mg/kg.

With `O=C(c1cn(C(=O)c2ccc(Cl)cc2)c2ccccc12)[C@@H]1CSC(c2cccnc2)N1` (some centres undefined) the ED50 [2] was 3.19 mg/kg.

Compound `CN(C)C(=O)n1cc(C(=O)[C@@H]2CSC(c3cccnc3)N2)c2ccc(-c3ccc(F)cc3)cc21` (some centres undefined) has an ED50 [2] of 0.76 mg/kg.

Compound `CNC(=O)n1cc(C(=O)[C@@H]2CSC(c3cccnc3)N2)c2ccccc21.O=C(O)C(=O)O.O=C(O)C(=O)O` (some centres undefined) has an ED50 [2] of 1.68 mg/kg.

`COC(=O)n1cc(C(=O)[C@@H]2CSC(c3cccnc3)N2)c2ccccc21` (some centres undefined) was tested, and the ED50 [1] was 1.97 mg/kg and the ED50 [2] was 5.19 mg/kg.

Work on `CN(C)C(=O)n1cc(C(=O)[C@@H]2CSC(c3cccnc3)N2)c2ccc(C#Cc3ccccc3)cc21` (some centres undefined) yielded an ED50 [2] of 0.885 mg/kg.

With `CN(C)C(=O)n1cc(C(=O)[C@@H]2CSC(c3cccnc3)N2)c2ccc(Oc3ccc(F)cc3)cc21` (some centres undefined) the ED50 [2] was 0.108 mg/kg.

`O=C(c1c[nH]c2cc(OCc3ccc(F)cc3)ccc12)[C@@H]1CSC(c2cccnc2)N1` (some centres undefined) was tested, and the ED50 [2] was 0.273 mg/kg.

`O=C(c1c[nH]c2cc(-c3ccccc3)ccc12)[C@@H]1CSC(c2cccnc2)N1` (some centres undefined) gave an ED50 [1] of 5.39 mg/kg and an ED50 [2] of 2.3 mg/kg.

`CN(C)C(=O)Cn1cc(C(=O)[C@@H]2CSC(c3cccnc3)N2)c2ccccc21` (some centres undefined) gave an ED50 [2] of 0.384 mg/kg.
